Assay results from PubChem BioAssay (NCI).
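A five-concentration, 48-hour dose response in 96-well plates underlies each endpoint, interpolated linearly between surrounding concentrations. TGI: total growth inhibition.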

Legend:
Test in all cases: NCI tumour cell line growth inhibition, 48 h
DU-145 prostate = test system: DU-145 prostate
NCI-H23 lung = test system: NCI-H23 lung
OVCAR-8 ovarian = test system: OVCAR-8 ovarian
OVCAR-4 ovarian = test system: OVCAR-4 ovarian
KM12 colon = test system: KM12 colon
SK-MEL-5 melanoma = test system: SK-MEL-5 melanoma
MDA-N = test system: MDA-N
CCRF-CEM leukemia = test system: CCRF-CEM leukemia
A549 NSCLC = test system: A549 NSCLC
MDA-MB-231 breast = test system: MDA-MB-231 breast

SMILES	TGI (DU-145 prostate)	TGI (NCI-H23 lung)	TGI (OVCAR-8 ovarian)	TGI (OVCAR-4 ovarian)	TGI (KM12 colon)	TGI (SK-MEL-5 melanoma)	TGI (MDA-N)	TGI (CCRF-CEM leukemia)	TGI (A549 NSCLC)	TGI (MDA-MB-231 breast)
Cc1cc2nc3ccccc3n2c2ccccc12	> 10 µM	> 10 µM	> 10 µM	> 10 µM	> 10 µM	> 10 µM	> 10 µM	> 10 µM	> 10 µM	> 10 µM
Oc1cccc2c(Br)ccnc12	39.5 µM	17.1 µM	> 36.2 µM	10.2 µM	21.1 µM	14.2 µM	> 50.4 µM	4.1 µM	> 100 µM	16.3 µM
CC(OP(=O)(O)O)C(N)C(=O)O (stereo not given)	> 100 µM	> 100 µM	> 100 µM	> 100 µM	> 100 µM	> 100 µM	> 100 µM	> 100 µM	> 100 µM	> 100 µM
O=C(O)CSC1=NNC2(C(=O)N1)c1ccccc1-c1ccccc12	> 10 µM	> 10 µM	> 10 µM	> 10 µM	> 10 µM	> 10 µM	> 10 µM	> 10 µM	> 10 µM	> 10 µM
C=C(CN(CC)CC)C1(c2ccccc2)CC2(CCCC2)C(=O)O1 (stereo not given)	> 100 µM	98.9 µM	> 100 µM	> 100 µM	> 100 µM	> 100 µM	> 100 µM	> 100 µM	> 100 µM	> 100 µM
COc1ccc(OC)c2c(C)ccnc12	> 100 µM	> 96.1 µM	> 79.2 µM	> 71 µM	> 100 µM	> 84.4 µM	> 100 µM	> 29.8 µM	97.7 µM	> 100 µM
Nc1ccc2c(=O)cc(-c3ccc(Br)s3)[nH]c2n1	> 100 µM	> 23.4 µM	> 57.2 µM	> 100 µM	> 100 µM	11.3 µM	1.29 µM	> 100 µM	> 44.8 µM	> 94.8 µM
O=C1C=CC2(O[C@H](C3CCCCC3)[C@@H](C3CCCCC3)O2)C(SC(=O)c2ccccc2)C1 (stereo not given in full)	10.4 µM	8.93 µM	13.9 µM	4.01 µM	18.3 µM	5.53 µM	7.2 µM	5.87 µM	45.8 µM	5.11 µM
Cc1ccc(S(=O)(=O)OCCC2CN(C(=O)OCc3ccccc3)C(C)(C)O2)cc1 (stereo not given)	> 100 µM	13.5 µM	29.4 µM	> 100 µM	12.4 µM	8.76 µM	> 100 µM	> 100 µM	> 100 µM	> 100 µM
CCOC(=O)c1cc2c3c(c(C(C)=O)c(OC)c2[nH]1)N(C(=O)CC)CC3	29.6 µM	25 µM	46.9 µM	40.9 µM	26.3 µM	24.5 µM	39.4 µM	71.4 µM	38.7 µM	40.9 µM
CC(C)(C)c1cc(OCc2nnc3sc(Cc4ccccc4)nn23)c(Cl)cc1OCc1nnc2sc(Cc3ccccc3)nn12	> 100 µM	> 100 µM	73.6 µM	> 100 µM	57.2 µM	31.7 µM	> 100 µM	8.97 µM	> 100 µM	39 µM
Cc1cc(C)nc(NS(=O)(=O)c2ccc(NNc3c4ccccc4nc4c(C(=O)Nc5ccc(S(=O)(=O)Nc6cc(C)on6)cc5)cccc34)cc2)n1	> 100 µM	> 100 µM	> 100 µM	> 100 µM	> 100 µM	> 100 µM	> 100 µM	63.5 µM	> 100 µM	94.4 µM
NC1CCCCC1NCCNC1CCCCC1N (stereo not given)	> 100 µM	96.8 µM	> 100 µM	> 100 µM	> 100 µM	> 100 µM	> 100 µM	> 100 µM	87.6 µM	> 100 µM
O=C1C=CC(=O)c2c(O)c(N3CCOCC3)c(Cl)c(O)c21	2.93 µM	0.589 µM	1 µM	0.663 µM	3.32 µM	0.822 µM	0.396 µM	> 10 µM	3.85 µM	0.612 µM
C=CC(C)(C)/C=C/c1ccc(O)cc1	> 100 µM	> 100 µM	> 100 µM	> 100 µM	> 100 µM	> 100 µM	> 100 µM	> 100 µM	> 100 µM	> 100 µM
COc1cccc2c1OC1c3ccccc3OCC1(O)C2 (stereo not given)	> 100 µM	> 100 µM	> 100 µM	> 100 µM	> 100 µM	> 100 µM	> 100 µM	> 100 µM	> 100 µM	> 100 µM
